In patent US20040072915A1, “Novel medicines based on sesquiterpene mixtures” (priority 2000, published 2004):

System: MCF7 cells
Experiment: Cell counts of MCF7 cells in culture with F, B or F+B (Example 1)
Type: cell-based
Procedure: Cells of line MCF7 are rapidly growing mammary adenocarcinoma cells. The doses tested in the study were 0.1.10^-3 and 0.5.10^-3 M. 1/100 dilutions were made in RPMT just before use and mixed to obtain a homogeneous emulsion at the moment of use. The mean number of cells inoculated was about 10^6 in each test. Test one: search for an effect on MCF7 cells at the dose of 0.5 mM. At the 11th transfer, the following were inoculated one bottle of MCF7 cells for growth, one bottle of MCF7 cells for the control, one bottle with the same number of calls +(F) at 0.5 mM, one bottle with the same number of cells +(F+B) at 0.5 mM, one bottle with the same number of cells +(B) at 0.5 mM. Bottles were placed in the incubator with caps unscrewed and the medium was changed every two days. On day 8, the cells were washed with 5 ml of PBS and freed from the substrate with PBS-EDTA, […] of RPMI+10% FCS and counted with a Malassez counting chamber. Test two: search of an effect on MCF7 cells at a dose of 0.1 mM. Same procedure as above is used but cells were used at the 12th transfer, using 0.1 mM doses of (F), (F+B) and (B).

[1] = test one, dose 0.5 mM, MCF7 cells counted on day 8, about 10^6 cells inoculated

Row | SMILES | appearance of the culture bottle (adhering / floating dead cells) (test one, 0.5 mM, MCF7) | cell counts [1] | alteration of cell adherence in culture (test run at 0.1 mM, MCF7) | cell counts (test two (test at 0.1 mM), line printed as B at 0.5 mM) | appearance of the culture bottle (adhering / floating dead cells) (test two, 0.1 mM, MCF7) | cell counts (test two, dose 0.1 mM, MCF7 cells counted on day 8, about 10^6 cells inoculated)
1 | CC(C)=CCC[C@](C)(O)[C@@H]1CC=C(C)CC1 [B, α-bisabolol] | few adhering cells and a large numbers of floating (dead) cells | 250 · 10^3 | slight | 8930 · 10^3 | adhering homogeneous layer of cells with several dead cells | 
2 | CC(C)=CCCC(C)=CCCC(C)=CCO [F, Farnesol] | few adhering cells and a large number of floating (dead) cells | 370 · 10^3 |  |  | few adhering cells and a large numbers of floating (dead) cells | 385 · 10^3
